Test [1] concerns Human prostate PC3 tumor cells. As to the kind of experiment: aFGF/bFGF-induced resistance and reversal by suramin, sulforhodamine B assay. It is filed as cell-based. The protocol:
The experimental conditions are described briefly below. […] Cell number was measured using the sulforhodamine B assay which measures the total protein concentration. […] The FGF-induced resistance was dependent on the FGF concentrations, with a higher resistance at higher FGF concentrations.

Test [2] relates to human leukemic cell line CCRF-CEM. The experiment in a line: FGF-induced resistance to fludarabine, MTT assay. It is filed as cell-based. As to conditions: 96 h, 96 hour treatment, read-out: concentration required to produce 50%. (In general: Tetrazolium dyes change colour on reduction, which living cells bring about.)
The test system of test [3] is human prostate cancer PC3 cells. As to the kind of experiment: Differential display of genes altered by bFGF treatment. Type of test: cell-based. The protocol:
Differential display was used to identify the down-stream genes that are involved in the bFGF-induced multidrug resistance. […] By this method, the genes that were altered by bFGF treatment in PC3 cells but not in FaDu cells were identified. The identified genes are likely to be associated with the bFGF-induced multidrug resistance.
For differential display, total RNA was isolated from the cells and reverse-transcripted in single strand cDNA. PCR was performed using a pair of T and P primers. […] Five of these bands were reproducibly altered in PC3 cells, but not in FaDu cells. These bands were cut from the gels, reamplified and cloned into pGEM-T vector. Nine different clones were identified and sequenced. The gene sequence was compared to the data in the NCBI GenBank. […] Primers were synthesized for drug resistant cancer cells. Among the nine clones, five were altered reproducibly by bFGF treatment while bFGF had no effect on the remaining four clones. The expression of two of the known genes, TSC22 and VEGF, were increased by 20 to 40%, whereas the expression of the three new genes (temporarily named FSC-1, FSC-2, and FSC-3) were induced by 65%, 300%, and 40%. TSC22 and VEGF are not known to be regulated by bFGF.

The next test relates to Human prostate PC3. The experiment in a line: FGF-induced resistance, inhibition of BrdU incorporation. To be noted: cell lines derived from solid tumors; 1 ng/ml r-aFGF plus 1 ng/ml r-bFGF vs 50 ng/ml r-bFGF alone. It is filed as cell-based. The protocol:
Prior to drug treatment, cells were incubated for 4 days with tumor CM or with r-aFGF ad/or r-bFGF-containing medium, supplemented with 1% FBS (final protein concentration adjusted to 2 mg/ml). The medium was renewed every other day.
The antiproliferative drug effect in histocultures was measured as inhibition of ^3H-thymidine incorporation quantified by autoradiography (Yen, W. C. et al. (1996) Pharm. Res. 13:1305-1312) and, for monolayers, as inhibition of BrdU incorporation or as reduction of total proteins by the sulforhodamine B assay (Au, J. L.-S. et al. (1998) Cancer Res. 58:2141-2148). For the latter, the two assays yielded qualitatively similar results. Cell kill induced by 96-hour drug treatment was monitored by the release of LDH into the culture medium. LDH activity was monitored by the conversion of tetrazolium to formazan (detected at 490 nm).
The experimental conditions are described briefly below. Cells were pretreated with human recombinant r-aFGF and/or r-bFGF for 96 hours and then with drugs for 96 hours. For the studies on cells derived from the human prostate, lung, pharynx, colon and breast cancer cells, the drug effect was determined by the inhibition of BrdU incorporation. For the study on the human leukemic cells, the drug effect was measured by the MTT assay, which measures the number of metabolically active cells (Alley, M. C. et al (1988) Cancer Res 48:589-601).

The test system of the next test is rat MAT-LyLu cells. As to the kind of experiment: Restoration of resistance by recombinant FGF in FGF-immunoprecipitated CM. It is filed as cell-based. The protocol:
The study was performed using rat MAT-LyLu cells. The reversal in CM-induced resistance was detected by measuring the changes in BrdU incorporation in treated samples relative to control samples. The source of CM was lung histocultures for both aFGF and bFGF experiments. The study used two controls: no CM (left solid curves, empty circles); with CM (right solid curves, empty squares). Upper left: CM minus […] (filled square); CM minus aFGF plus r-aFGF (filled circles, overlaps with the right CM-control curve). Upper right: CM minus bFGF (filled square, overlaps with the left control curve); CM minus bFGF plus r-bFGF (filled circle, overlaps with the right CM control curve). Lower left: Both the CM minus aFGF and bFGF (filled square) and the CM minus aFGF and bFGF plus aFGF (filled circle) curves overlap with the left control curve. Lower center: CM minus aFGF and bFGF (filled square, overlaps with left control curve); CM minus aFGF and bFGF plus r-bFGF (filled circle). Lower right: CM minus aFGF and bFGF (filled square, overlaps with left control curve); CM minus aFGF and bFGF plus r-aFGF and r-bFGF (filled circle, overlaps with the right CM-control curve).
aFGF or bFGF was immunoprecipitated with their respective monoclonal antibody (1 microgram/ml), in the presence of Protein G PLUS/protein A agarose (Oncogene). This procedure reduced the bFGF level in the original CM to below the detection limit of 5 pg/ml by the ELISA (Oncogene), and the aFGF level in the concentrated CM to below the detection limit by Western blotting.
The third study determined whether aFGF and/or bFGF are required for the resistance. Endogenous aFGF and/or bFGF were removed from the active CM by immunoprecipitation, and then reconstituted the CM using recombinant proteins. […] The fifth study confirmed that aFGF and bFGF were the main cause of chemoresistance, by using only r-aFGF and r-bFGF (i.e., without the immunoprecipitated CM) to induce resistance (FIG. 3). When given alone, r-aFGF had no effect whereas r-bFGF induced a concentration-dependent resistance. […]

The next test relates to rat tumor cells. As to the kind of experiment: Doubling time of exponentially growing cells. Type of test: cell-based. To be noted: treatment with r-bFGF.
In another test the test system is PC3 tumor cells. As to the kind of experiment: Doubling time of exponentially growing cells. Type of test: cell-based, human. As to conditions: treatment with r-bFGF.
Where [4] appears, read: no suramin, relative to control.

Read-outs that look alike come from different tables or passages of the source.

In the case of `Nc1nc(F)nc2c1ncn2[C@@H]1O[C@H](CO)[C@@H](O)[C@@H]1O` [Fludarabine], the IC50 in test [1] (Homo sapiens, read-out: IC50, Control (drug treatment only, without FGF treatment), No suramin, drug 96 hours) amounted to 5.15 µM; in test [1] (Homo sapiens, read-out: IC50, aFGF 0.3 ng/ml + bFGF 1 ng/ml, No suramin, FGF pretreatment 96 hours, drug 96 hours), 13.5 µM; in test [1] (Homo sapiens, read-out: IC50, aFGF 1 ng/ml + bFGF 3 ng/ml, No suramin, FGF pretreatment 96 hours, drug 96 hours), 21.9 µM; in test [1] (read-out: IC50, Control (without FGF treatment), Suramin, 15 μM, drug 96 hours with 15 μM suramin), 5.2 µM; in test [1] (read-out: IC50, aFGF 0.3 ng/ml + bFGF 1 ng/ml, With suramin, FGF pretreatment 96 hours, drug 96 hours with 15 micromolar suramin), 4.69 µM; in test [1] (read-out: IC50, aFGF 1 ng/ml + bFGF 3 ng/ml, With suramin, FGF pretreatment 96 hours, drug 96 hours with 15 micromolar suramin), 5.85 µM. Besides, the IC50 in test [2] (absence of FGF) stood at 4 µM; in test [2] (r-aFGF (1 ng/ml) and r-bFGF (3 ng/ml)), 6 µM. Further, the “Resistance, Folds, aFGF 0.3 ng/ml + bFGF 1 ng/ml” value in test [1] (setting [4]) was 2.61 Folds. In addition, the “Resistance, Folds, aFGF 1 ng/ml + bFGF 3 ng/ml” value in test [1] (setting [4]) is 4.25 Folds.

As for “bFGF: basic Fibroblast Growth Factor used for treatment of PC3 cells”, in test [3], the “induction of expression of FSC-1” value is recorded as 65%, the “induction of expression of FSC-2” value was determined as 300% and the “induction of expression of FSC-3” value was 40%.

With “r-aFGF: human recombinant aFGF, identical to the 14 kDa human aFGF except for the extra methionine at the amino terminus”, the “amplification of the r-bFGF effect by r-aFGF” value in the test with Human prostate PC3 is “more than 50 fold”. Moreover, in the test with rat MAT-LyLu cells (added to CM depleted of both aFGF and bFGF), the induction of resistance entry is “did not induce resistance”.

Regarding “r-bFGF: human recombinant bFGF, identical to the 18 kDa human bFGF except for the extra methionine at the amino terminus”, in the test with rat MAT-LyLu cells (50 ng/ml versus about 0.9 ng/ml), the “concentration needed relative to the endogenous bFGF concentration in the native CM” value was 55 fold. Also, the “concentration of exogenous r-bFGF needed to restore the resistance” value with rat MAT-LyLu cells (CM depleted of both aFGF and bFGF) came out at 50 ng/mL. For the same compound, the “doubling time, unchanged by treatment” value was 17 h with rat tumor cells and 24 h in the test with PC3 tumor cells.

(Values after patent US20040010001A1, “Methods and compositions for modulating cell proliferation and cell death” (priority 1999, published 2004).)
